For 20 compounds, pest or weed control results are on record in patent US20180186742A1, “PICOLINAMIDES AS FUNGICIDES” (Dow AgroSciences LLC, priority 2017, published 2018).

Holding throughout (type): in vivo
For one test, the system named is Zymoseptoria tritici. Briefly: Leaf blotch of wheat (SEPTTR), disease control on wheat seedlings. To be noted: low volume application at 121.5 g/H. The gist of the method: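 Yuma wheat seedlings with the first leaf fully emerged were sprayed to run-off with compound in acetone plus nine volumes of water containing 110 ppm Triton X-100; track-spray tests used EC formulations with 0.1% Trycol 5941. Z. tritici inoculation came before or after treatment, followed by 100% RH dew periods and a 20 °C greenhouse. Percent control was calculated from severity versus untreated plants.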

In the next test the test system is Puccinia triticina. Briefly: Wheat brown rust (PUCCRT), disease control on wheat seedlings. To be noted: low volume application at 121.5 g/H. The gist of the method:
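Compounds in acetone, diluted with nine volumes of water containing 110 ppm Triton X-100, sprayed to run-off on first-leaf Yuma wheat seedlings; track-spray tests used EC formulations with 0.1% Trycol 5941. Puccinia triticina spores applied before or after treatment. Overnight dark dew room at 22° C, 100% humidity, then greenhouse at 24° C.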

The subject of another test is Phakopsora pachyrhizi. Briefly: Asian soybean rust (PHAKPA), disease control on soybean seedlings. The following applies: High volume application at 25 ppm. On the procedure: Technical grades of materials were dissolved in acetone, which were then mixed with nine volumes of water containing 0.011% Tween 20. The fungicide solutions were applied onto soybean seedlings using an automated booth sprayer to run-off. All sprayed plants were allowed to air dry prior to further handling.
Soybean plants (variety Williams 82) were grown in soil-less Metro mix, with one plant per pot. Two week old seedlings were used for testing. Plants were inoculated either 3 days prior to or 1 day after fungicide treatments. Plants were incubated for 24 h in a dark dew room at 22° C. and 100% relative humidity then transferred to a growth room at 23° C. for disease to develop. Disease severity was assessed on the sprayed leaves.

Where [1] appears, read: 24 h, 1 Day Protectant, read-out: SEPTTR disease control, 1DP, LV activity.
[2] abbreviates: 72 h, 3 Day Curative, read-out: SEPTTR disease control, 3DC, LV activity.
[3] abbreviates: 24 h, 1 Day Protectant, read-out: PUCCRT disease control, 1DP, LV activity.
[4] abbreviates: 72 h, 3 Day Curative, read-out: PUCCRT disease control, 3DC, LV activity.
[5] abbreviates: 24 h, 1 Day Protectant, read-out: PHAKPA 1DP disease control rating.
Where [6] appears, read: 72 h, 3 Day Curative, read-out: PHAKPA 3DC disease control rating.

Like-named read-outs stand apart in the source and are kept apart here. Bounds are passed on as bounds.

`COc1ccnc(C(=O)N[C@@H](C)C(=O)O[C@@H](C)[C@@H](c2ccc(F)cc2C)C2CCCC2)c1OC(C)=O` [Compound 180]: the pest or weed control at 121.5 g/ha in the test on Zymoseptoria tritici (setting [1]) was < 80%; in the test on Zymoseptoria tritici (setting [2]) it was < 80%; with Puccinia triticina (setting [3]), > 80%; in the test with Puccinia triticina (setting [4]), < 80%. The pest or weed control at 25 ppm in the test on Phakopsora pachyrhizi (setting [5]) and in the test with Phakopsora pachyrhizi (setting [6]) was < 80% throughout.
As for `COc1ccnc(C(=O)N[C@@H](C)C(=O)O[C@@H](C)[C@@H](c2ccc(F)cc2C)C2CCCCC2)c1OC(C)=O` [Compound 181], the pest or weed control at 121.5 g/ha with Zymoseptoria tritici (setting [1]) is < 80%; in the test on Zymoseptoria tritici (setting [2]), > 80%; in the test with Puccinia triticina (setting [3]), < 80%; in the test with Puccinia triticina (setting [4]), < 80%. Also, the pest or weed control at 25 ppm in the test with Phakopsora pachyrhizi (setting [5]) was < 0%; in the test on Phakopsora pachyrhizi (setting [6]), < 80%.
For `CCC(C)[C@H](c1ccc(F)cc1C)[C@H](C)OC(=O)[C@H](C)NC(=O)c1nccc(OC)c1OC(C)=O` (stereo partly drawn) [Compound 182], the pest or weed control at 121.5 g/ha with Zymoseptoria tritici (setting [1]) was < 80%; with Zymoseptoria tritici (setting [2]) it was > 80%; in the test with Puccinia triticina (setting [3]) it was > 80%; in the test with Puccinia triticina (setting [4]), < 80%. Besides, the pest or weed control at 25 ppm with Phakopsora pachyrhizi (setting [5]) and in the test on Phakopsora pachyrhizi (setting [6]) was < 80% throughout.
On to `COc1ccnc(C(=O)N[C@@H](C)C(=O)O[C@@H](C)[C@@H](c2ccc(F)cc2C)C2CCC2)c1OC(C)=O` [Compound 183], for which the pest or weed control at 121.5 g/ha with Zymoseptoria tritici (setting [1]) was < 80%; with Zymoseptoria tritici (setting [2]), > 80%; in the test on Puccinia triticina (setting [3]) it was < 80%; in the test with Puccinia triticina (setting [4]), < 80%. The pest or weed control at 25 ppm with Phakopsora pachyrhizi (setting [5]) and with Phakopsora pachyrhizi (setting [6]) was < 80% each time.
As to `COc1ccnc(C(=O)N[C@@H](C)C(=O)O[C@@H](C)[C@H](c2ccc(F)cc2C)C2CCCC2)c1OC(C)=O` [Compound 184], the pest or weed control at 121.5 g/ha with Zymoseptoria tritici (setting [1]), in the test with Zymoseptoria tritici (setting [2]), in the test on Puccinia triticina (setting [3]) and in the test on Puccinia triticina (setting [4]) was > 80% each time. The pest or weed control at 25 ppm in the test with Phakopsora pachyrhizi (setting [5]) is > 80%; in the test on Phakopsora pachyrhizi (setting [6]), < 80%.
With `COc1ccnc(C(=O)N[C@@H](C)C(=O)O[C@@H](C)[C@H](c2ccc(F)cc2C)C2CCCCC2)c1OC(C)=O` [Compound 185], the pest or weed control at 121.5 g/ha was > 80% in the test with Zymoseptoria tritici (setting [1]), > 80% in the test with Zymoseptoria tritici (setting [2]), > 80% in the test with Puccinia triticina (setting [3]) and < 80% in the test with Puccinia triticina (setting [4]). Besides, the pest or weed control at 25 ppm in the test with Phakopsora pachyrhizi (setting [5]) is > 80%; in the test with Phakopsora pachyrhizi (setting [6]) it was < 80%.
Regarding `CCC(C)[C@@H](c1ccc(F)cc1C)[C@H](C)OC(=O)[C@H](C)NC(=O)c1nccc(OC)c1OC(C)=O` (stereo partly drawn) [Compound 188], the pest or weed control at 121.5 g/ha in the test on Zymoseptoria tritici (setting [1]) is > 80%; in the test on Zymoseptoria tritici (setting [2]) it was > 80%; with Puccinia triticina (setting [3]), > 80%; in the test on Puccinia triticina (setting [4]) it was < 80%. Moreover, the pest or weed control at 25 ppm with Phakopsora pachyrhizi (setting [5]) and in the test on Phakopsora pachyrhizi (setting [6]) was > 80% throughout.
As for `COc1ccnc(C(=O)N[C@@H](C)C(=O)O[C@@H](C)[C@H](c2ccc(F)cc2C)C2CCC2)c1OC(C)=O` [Compound 189], the pest or weed control at 121.5 g/ha in the test with Zymoseptoria tritici (setting [1]) was > 80%; in the test on Zymoseptoria tritici (setting [2]), > 80%; in the test with Puccinia triticina (setting [3]), > 80%; with Puccinia triticina (setting [4]) it was < 80%. In addition, the pest or weed control at 25 ppm is > 80% with Phakopsora pachyrhizi (setting [5]) and < 80% in the test on Phakopsora pachyrhizi (setting [6]).
On to `COc1ccnc(C(=O)N[C@@H](C)C(=O)O[C@H](C)[C@H](c2ccc(F)cc2C)C2CCCC2)c1OC(C)=O` [Compound 190], for which the pest or weed control at 121.5 g/ha with Zymoseptoria tritici (setting [1]) was < 0%; with Zymoseptoria tritici (setting [2]), < 80%; in the test on Puccinia triticina (setting [3]) it was < 0%; with Puccinia triticina (setting [4]), < 0%. The pest or weed control at 25 ppm in the test with Phakopsora pachyrhizi (setting [5]) and in the test on Phakopsora pachyrhizi (setting [6]) was < 80% throughout.
As for `COc1ccnc(C(=O)N[C@@H](C)C(=O)O[C@H](C)[C@H](c2ccc(F)cc2C)C2CCCCC2)c1OC(C)=O` [Compound 191], the pest or weed control at 121.5 g/ha is < 80% in the test with Zymoseptoria tritici (setting [1]), < 80% in the test with Zymoseptoria tritici (setting [2]), < 0% with Puccinia triticina (setting [3]) and < 80% in the test on Puccinia triticina (setting [4]). Further, the pest or weed control at 25 ppm is < 80% in the test on Phakopsora pachyrhizi (setting [5]) and < 0% in the test on Phakopsora pachyrhizi (setting [6]).
For the compound `COc1ccnc(C(=O)N[C@@H](C)C(=O)O[C@H](C)[C@H](c2ccc(F)cc2C)C(C)C)c1OC(C)=O` [Compound 192], the pest or weed control at 121.5 g/ha in the test with Zymoseptoria tritici (setting [1]) is < 0%; with Zymoseptoria tritici (setting [2]), > 80%; with Puccinia triticina (setting [3]) it was > 80%; in the test on Puccinia triticina (setting [4]) it was < 80%. The pest or weed control at 25 ppm in the test on Phakopsora pachyrhizi (setting [5]) was > 80%; in the test on Phakopsora pachyrhizi (setting [6]), < 80%.
On to `COc1ccnc(C(=O)N[C@@H](C)C(=O)O[C@@H](C)[C@@H](c2ccc(F)cc2C)C2CCCC2)c1OCOC(C)=O` [Compound 193], for which the pest or weed control at 121.5 g/ha with Zymoseptoria tritici (setting [1]) was < 0%; in the test with Zymoseptoria tritici (setting [2]) it was < 80%; in the test with Puccinia triticina (setting [3]), < 80%; with Puccinia triticina (setting [4]), < 80%. The pest or weed control at 25 ppm in the test on Phakopsora pachyrhizi (setting [5]) and in the test on Phakopsora pachyrhizi (setting [6]) was < 80% each time.
On to `COc1ccnc(C(=O)N[C@@H](C)C(=O)O[C@@H](C)[C@@H](c2ccc(F)cc2C)C2CCCCC2)c1OCOC(C)=O` [Compound 194], for which the pest or weed control at 121.5 g/ha in the test on Zymoseptoria tritici (setting [1]) is < 80%; in the test with Zymoseptoria tritici (setting [2]) it was > 80%; in the test with Puccinia triticina (setting [3]), < 80%; in the test on Puccinia triticina (setting [4]) it was < 0%. The pest or weed control at 25 ppm with Phakopsora pachyrhizi (setting [5]) and in the test on Phakopsora pachyrhizi (setting [6]) was < 80% throughout.
With `COc1ccnc(C(=O)N[C@@H](C)C(=O)O[C@@H](C)[C@H](c2ccc(F)cc2C)C2CCCC2)c1OCOC(C)=O` [Compound 195], the pest or weed control at 121.5 g/ha in the test on Zymoseptoria tritici (setting [1]), in the test with Zymoseptoria tritici (setting [2]), with Puccinia triticina (setting [3]) and with Puccinia triticina (setting [4]) was > 80% in each case. Moreover, the pest or weed control at 25 ppm was > 80% in the test on Phakopsora pachyrhizi (setting [5]) and < 80% with Phakopsora pachyrhizi (setting [6]).
On to `CCC(C)[C@@H](c1ccc(F)cc1C)[C@H](C)OC(=O)[C@H](C)NC(=O)c1nccc(OC)c1OCOC(C)=O` (stereo partly drawn) [Compound 196], for which the pest or weed control at 121.5 g/ha with Zymoseptoria tritici (setting [1]), in the test with Zymoseptoria tritici (setting [2]), with Puccinia triticina (setting [3]) and in the test on Puccinia triticina (setting [4]) was > 80% throughout. Besides, the figures for the pest or weed control at 25 ppm with Phakopsora pachyrhizi (setting [5]) and in the test on Phakopsora pachyrhizi (setting [6]) were > 80% and < 80%, respectively.
`COc1ccnc(C(=O)N[C@@H](C)C(=O)O[C@@H](C)[C@H](c2ccc(F)cc2C)C2CCC2)c1OCOC(C)=O` [Compound 197]: the pest or weed control at 121.5 g/ha in the test with Zymoseptoria tritici (setting [1]), with Zymoseptoria tritici (setting [2]), with Puccinia triticina (setting [3]) and in the test on Puccinia triticina (setting [4]) was > 80% throughout. For the same compound, the pest or weed control at 25 ppm in the test on Phakopsora pachyrhizi (setting [5]) and with Phakopsora pachyrhizi (setting [6]) was > 80% in each case.
Consider `COc1ccnc(C(=O)N[C@@H](C)C(=O)O[C@H](C)[C@H](c2ccc(F)cc2C)C2CCCC2)c1OCOC(C)=O` [Compound 198], for which the pest or weed control at 121.5 g/ha in the test on Zymoseptoria tritici (setting [1]) is < 80%; in the test on Zymoseptoria tritici (setting [2]), < 80%; in the test with Puccinia triticina (setting [3]), < 80%; in the test on Puccinia triticina (setting [4]), < 0%. The pest or weed control at 25 ppm in the test with Phakopsora pachyrhizi (setting [5]) and in the test on Phakopsora pachyrhizi (setting [6]) was < 80% throughout.
On to `COc1ccnc(C(=O)N[C@@H](C)C(=O)O[C@H](C)[C@H](c2ccc(F)cc2C)C2CCCCC2)c1OCOC(C)=O` [Compound 199], for which the pest or weed control at 121.5 g/ha in the test on Zymoseptoria tritici (setting [1]) is > 80%; in the test on Zymoseptoria tritici (setting [2]), < 80%; with Puccinia triticina (setting [3]), < 80%; in the test on Puccinia triticina (setting [4]), < 0%. In addition, the pest or weed control at 25 ppm in the test on Phakopsora pachyrhizi (setting [5]) and in the test with Phakopsora pachyrhizi (setting [6]) was < 80% in each case.
Regarding `COc1ccnc(C(=O)N[C@@H](C)C(=O)O[C@@H](C)[C@@H](c2ccc(C)cc2C)C(C)C)c1OC(C)=O` [Compound 200], the pest or weed control at 121.5 g/ha is < 0% in the test with Zymoseptoria tritici (setting [1]), < 80% in the test on Zymoseptoria tritici (setting [2]), < 80% in the test on Puccinia triticina (setting [3]) and < 80% with Puccinia triticina (setting [4]). Besides, the values for the pest or weed control at 25 ppm with Phakopsora pachyrhizi (setting [5]) and in the test on Phakopsora pachyrhizi (setting [6]) were < 80% and < 0%, respectively.
Take `COc1ccnc(C(=O)N[C@@H](C)C(=O)O[C@@H](C)[C@@H](c2ccc(C)cc2C)C2CCCC2)c1OC(C)=O` [Compound 201]: the pest or weed control at 121.5 g/ha in the test with Zymoseptoria tritici (setting [1]) was < 80%; in the test with Zymoseptoria tritici (setting [2]) it was < 80%; in the test on Puccinia triticina (setting [3]), > 80%; with Puccinia triticina (setting [4]), < 80%. Besides, the pest or weed control at 25 ppm is < 80% in the test with Phakopsora pachyrhizi (setting [5]) and < 0% with Phakopsora pachyrhizi (setting [6]).
